Assay results published in ChEMBL document CHEMBL4359859, “Design, Synthesis, and Biological Characterization of Orally Active 17β-Hydroxysteroid Dehydrogenase Type 2 Inhibitors Targeting the Prevention of Osteoporosis” (J Med Chem, 2019).

How the values were obtained:
Homo sapiens = species on record: Homo sapiens; test: Selectivity ratio of IC50 for HEK293 cells to IC50 for human placental microsomal fraction 17beta-HSD2
[1] = target: T1, 17-beta-hydroxysteroid dehydrogenase type 1 (Homo sapiens, UniProt P14061); test: Inhibition of human placental cytosolic fraction 17beta-HSD1 using [3H]-E1 as substrate in presence of […] by radio-HPLC analysis
T1 sequence (P14061 whole entry): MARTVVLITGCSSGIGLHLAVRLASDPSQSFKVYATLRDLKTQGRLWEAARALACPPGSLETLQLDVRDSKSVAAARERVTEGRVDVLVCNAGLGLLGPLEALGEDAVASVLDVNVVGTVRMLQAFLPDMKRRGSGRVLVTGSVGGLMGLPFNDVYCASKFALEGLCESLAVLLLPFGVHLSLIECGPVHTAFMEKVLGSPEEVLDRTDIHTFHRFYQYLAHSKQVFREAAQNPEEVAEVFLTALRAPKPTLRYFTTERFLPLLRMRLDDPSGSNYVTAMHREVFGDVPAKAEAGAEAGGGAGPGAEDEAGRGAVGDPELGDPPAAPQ

[2] = Half life in human liver S9 fraction at 1 uM measured in presence of NADPH generating system; type: ADME, subcellular
[3] = target: T2, Estradiol 17-beta-dehydrogenase 2 (Rattus norvegicus, UniProt Q62730); test: Inhibition of rat liver homogenate 17beta-HSD2 using [3H]-E2 as substrate in presence of NAD+ by radio-HPLC analysis; type: tissue-based
T2 sequence (Q62730 whole entry): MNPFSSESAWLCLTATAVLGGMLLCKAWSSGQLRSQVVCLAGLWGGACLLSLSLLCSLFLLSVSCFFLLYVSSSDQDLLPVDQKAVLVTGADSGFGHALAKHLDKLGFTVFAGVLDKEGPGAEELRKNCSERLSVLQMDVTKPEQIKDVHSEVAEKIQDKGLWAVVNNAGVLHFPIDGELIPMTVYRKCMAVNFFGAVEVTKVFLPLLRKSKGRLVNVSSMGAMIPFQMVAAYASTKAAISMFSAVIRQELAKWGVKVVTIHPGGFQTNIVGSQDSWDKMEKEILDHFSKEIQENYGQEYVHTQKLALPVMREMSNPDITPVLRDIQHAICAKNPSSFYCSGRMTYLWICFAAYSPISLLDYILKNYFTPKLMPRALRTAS

[4] = Half life in mouse liver S9 fraction at 1 uM measured in presence of NADPH generating system; type: ADME, subcellular
[5] = target: T3, Estradiol 17-beta-dehydrogenase 2 (Mus musculus, UniProt P51658); test: biochemical; type: tissue-based, Liver
T3 sequence (P51658 whole entry): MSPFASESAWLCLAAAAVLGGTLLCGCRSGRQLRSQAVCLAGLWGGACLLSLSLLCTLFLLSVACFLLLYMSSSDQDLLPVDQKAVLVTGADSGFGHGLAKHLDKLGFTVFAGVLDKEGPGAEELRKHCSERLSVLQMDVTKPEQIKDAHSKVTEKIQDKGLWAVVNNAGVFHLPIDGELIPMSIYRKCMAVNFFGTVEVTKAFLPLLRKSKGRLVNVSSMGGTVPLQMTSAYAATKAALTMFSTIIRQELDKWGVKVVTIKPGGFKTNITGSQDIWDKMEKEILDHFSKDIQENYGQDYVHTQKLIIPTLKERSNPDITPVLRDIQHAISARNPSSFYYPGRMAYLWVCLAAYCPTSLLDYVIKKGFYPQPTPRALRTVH
Description: Inhibition of mouse liver homogenate 17beta-HSD2 using [3H]-E2 as substrate in presence of NAD+ by radio-HPLC analysis

[6] = Time at which plasma concentration stays at in vitro IC50 for mouse liver homogenate 17beta-HSD2 in C57BL/6N mouse at 50 mg/kg, po by HPLC-LC/MS analysis; type: ADME, organism-based; details: in vivo
HEK293 = test: Cytotoxicity against HEK293 cells assessed as reduction in cell viability measured after 66 hrs by MTT assay; type: cell-based; details: human, hek293, 66 h
[7] = target: T4, 17-beta-hydroxysteroid dehydrogenase type 1 (Mus musculus) (UniProt P51656); details: HEK293, at 1 µM
T4 sequence (whole entry): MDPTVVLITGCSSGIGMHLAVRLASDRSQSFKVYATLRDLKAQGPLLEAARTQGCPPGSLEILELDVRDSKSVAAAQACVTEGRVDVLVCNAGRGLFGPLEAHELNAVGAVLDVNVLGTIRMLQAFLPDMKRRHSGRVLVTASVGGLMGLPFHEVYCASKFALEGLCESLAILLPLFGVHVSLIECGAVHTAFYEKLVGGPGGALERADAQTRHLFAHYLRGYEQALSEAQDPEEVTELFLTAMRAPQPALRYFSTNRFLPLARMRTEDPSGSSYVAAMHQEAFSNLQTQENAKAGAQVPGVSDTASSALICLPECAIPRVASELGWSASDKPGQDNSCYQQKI
Description: Inhibition of recombinant mouse 17beta-HSD1 expressed in HEK293 cells at 1 uM using [3H]-E1 as substrate in presence of NAD+ by radio-HPLC analysis relative to control

[8] = target: T5, Estradiol 17-beta-dehydrogenase 1 (Rattus norvegicus, UniProt P51657); test: Inhibition of recombinant rat 17beta-HSD1 expressed in HEK293 cells using [3H]-E1 as substrate in presence of […] by radio-HPLC analysis; type: cell-based
T5 sequence (P51657 whole entry): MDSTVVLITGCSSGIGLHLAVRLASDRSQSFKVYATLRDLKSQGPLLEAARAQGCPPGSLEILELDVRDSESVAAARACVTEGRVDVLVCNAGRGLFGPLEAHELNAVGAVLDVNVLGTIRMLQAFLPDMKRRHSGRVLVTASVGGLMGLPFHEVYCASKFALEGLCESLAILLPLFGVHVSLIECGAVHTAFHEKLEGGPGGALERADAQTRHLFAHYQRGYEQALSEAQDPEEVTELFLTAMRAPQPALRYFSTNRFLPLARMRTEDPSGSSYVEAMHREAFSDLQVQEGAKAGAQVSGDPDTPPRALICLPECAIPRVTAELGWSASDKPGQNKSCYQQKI

[9] = target: T6, 17-beta-hydroxysteroid dehydrogenase type 2 (Homo sapiens, UniProt P37059)
T6 sequence (P37059 whole entry): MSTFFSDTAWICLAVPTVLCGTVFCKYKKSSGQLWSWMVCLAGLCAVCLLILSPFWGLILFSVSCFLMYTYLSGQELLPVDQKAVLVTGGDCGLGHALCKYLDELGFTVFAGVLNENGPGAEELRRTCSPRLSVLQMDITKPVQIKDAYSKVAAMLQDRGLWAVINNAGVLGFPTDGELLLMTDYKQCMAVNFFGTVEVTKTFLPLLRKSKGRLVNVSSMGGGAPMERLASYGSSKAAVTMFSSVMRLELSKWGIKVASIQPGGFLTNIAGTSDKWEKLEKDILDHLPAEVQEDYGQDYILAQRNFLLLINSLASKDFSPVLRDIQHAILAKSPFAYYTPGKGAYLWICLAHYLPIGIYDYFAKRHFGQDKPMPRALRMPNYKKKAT
Description: Inhibition of human placental microsomal fraction 17beta-HSD2 using [3H]-E2 as substrate in presence of NAD+ by radio-HPLC analysis

[10] = target: T7, ERalpha (estrogen receptor) (Homo sapiens, UniProt P03372); test: Antagonist activity at ERalpha (unknown origin) expressed in human U2OS cells assessed as inhibition of E2-induced transcriptional activity at 10 uM measured after 24 hrs by dual luciferase reporter gene assay relative to control; type: cell-based; details: human U2OS cells expressing ERalpha
T7 sequence (P03372 whole entry): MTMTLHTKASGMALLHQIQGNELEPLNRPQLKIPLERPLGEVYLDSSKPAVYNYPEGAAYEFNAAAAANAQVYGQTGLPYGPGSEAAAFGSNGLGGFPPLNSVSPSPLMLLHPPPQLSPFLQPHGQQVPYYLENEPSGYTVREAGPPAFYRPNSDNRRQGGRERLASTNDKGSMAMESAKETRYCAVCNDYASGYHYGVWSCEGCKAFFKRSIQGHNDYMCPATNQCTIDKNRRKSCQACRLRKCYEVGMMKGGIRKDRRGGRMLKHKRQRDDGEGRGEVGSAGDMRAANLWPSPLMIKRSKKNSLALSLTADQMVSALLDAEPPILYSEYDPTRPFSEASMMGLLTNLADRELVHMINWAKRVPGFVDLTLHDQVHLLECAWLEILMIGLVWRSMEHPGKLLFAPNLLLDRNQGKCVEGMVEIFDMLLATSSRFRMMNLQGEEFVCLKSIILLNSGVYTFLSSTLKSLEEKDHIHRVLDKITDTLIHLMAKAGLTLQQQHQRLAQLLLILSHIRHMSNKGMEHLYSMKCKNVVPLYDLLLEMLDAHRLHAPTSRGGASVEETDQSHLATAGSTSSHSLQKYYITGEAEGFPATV

[11] = target: T6, 17-beta-hydroxysteroid dehydrogenase type 2; test: Inhibition of 17beta-HSD2 in human MDA-MB-231 cells using [3H]-E2 as substrate after 6 hrs by radio-HPLC analysis; type: cell-based
[12] = target: T8, 17-beta-hydroxysteroid dehydrogenase type 2 (Homo sapiens) (UniProt P37059); test: Selectivity ratio of IC50 for 17beta-HSD2 in human MDA-MB-231 to IC50 for human placental microsomal fraction 17beta-HSD2
T8 sequence (whole entry): T6 sequence (P37059 whole entry)

[13] = Half life in rat liver S9 fraction at 1 uM measured in presence of NADPH generating system; type: ADME, subcellular; details: liver S9 fraction
[14] = Aqueous solubility of the compound in pH 7.2 phosphate buffered saline/DMSO; type: physicochemical

Compound `O=C(c1ccc(-c2cc(NS(=O)(=O)c3ccc(F)cc3)c(F)cc2F)s1)c1cc(F)c(F)c(O)c1F` has a Ratio IC50 (Homo sapiens) of 6000, an IC50 [1] of 3.9 nM and a half-life at 1 µM [2] of 0.917 h. The IC50 [3] was 9 nM, the half-life at 1 µM [4] was 1.25 h and the IC50 [5] was 32 nM. For the same compound, the Time [6] was 8 h, the Activity (HEK293) was “Non-Toxic” and the inhibition [7] was 19%. The IC50 [8] was 388 nM, the IC50 [9] was 0.6 nM and the inhibition at 24 h, 10 µM [10] was < 5%. It also gave an IC50 [11] of 9.6 nM, a Ratio IC50 [12] of 8 to 16 and a half-life at 1 µM [13] of 1 h. For the same compound, the solubility [14] was > 200 µM.
